The source of these data is ChEMBL document CHEMBL5380842, “Discovery of a Potent and Selective CCR8 Small Molecular Antagonist IPG7236 for the Treatment of Cancer” (J Med Chem, 2023).

Converted amounts (≈) assume the structure as drawn.

For series [1], the target named is C-C chemokine receptor type 8 (Homo sapiens, UniProt P51685). Briefly: Antagonist activity against CCR8 (unknown origin) expressed in CHO-K1 cells preincubated for 1 hr followed by CCL1 addition measured after 24 hrs by ONE-Glo assay. It is filed as cell-based.
Sequence of C-C chemokine receptor type 8 (P51685 whole entry): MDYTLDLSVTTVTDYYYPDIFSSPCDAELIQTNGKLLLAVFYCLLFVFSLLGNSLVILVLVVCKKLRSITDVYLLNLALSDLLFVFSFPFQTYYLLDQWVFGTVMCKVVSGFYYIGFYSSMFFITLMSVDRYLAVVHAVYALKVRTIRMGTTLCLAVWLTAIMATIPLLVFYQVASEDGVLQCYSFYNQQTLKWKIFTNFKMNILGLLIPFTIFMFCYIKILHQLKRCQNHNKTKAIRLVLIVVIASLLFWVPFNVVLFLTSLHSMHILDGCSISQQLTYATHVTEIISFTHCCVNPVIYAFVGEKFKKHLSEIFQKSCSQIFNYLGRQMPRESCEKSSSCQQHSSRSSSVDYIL
A short description of series [2]: Apparent permeability of compound across apical to basal side in human Caco2 cells at 10 uM incubated for 120 mins by LC-MS/MS analysis. To be noted: Caco-2. (Caco-2 cells form a polarised layer with tight junctions and transporters.)
Series [3] in a line: Efflux ratio of apparent permeability across basolateral to apical side over apical to basolateral side in human Caco-2 cells at 10 uM incubated for 120 mins by LC-MS/MS analysis.
Series [4] can be described thus: Apparent permeability of compound across basal to apical side in human Caco2 cells at 10 uM incubated for 120 mins by LC-MS/MS analysis. To be noted: Caco-2.
The nature of series [5]: Solubility of compound in PBS at pH 7.4 incubated for 2 hrs by LC-MS/MS analysis. It counts as physicochemical.

As a reminder, the IC50 is the concentration that inhibits the measured activity by half. A high value points to lower potency. Molecule `CCCN1CCN(c2cccc(NS(=O)(=O)c3ccc(NC(=O)c4ccccc4C)c4ccccc34)c2C)CC1` came in with an IC50 in series [1] of over 1000 nM.

Usually Papp A→B stands for how fast a substance crosses the layer from the apical side. By efflux ratio is commonly meant a quotient of directional permeabilities that is used to spot active efflux. Broadly, the Papp B→A is how fast a substance crosses the layer from the basolateral side. Consider `Cc1cc(S(=O)(=O)N[C@H](C)C2CCN(C)CC2)c(F)cc1NC(=O)c1ccccc1C`, for which, in series [2], the Papp A→B at 2 h, 10 µM was determined as 2.2 ×10⁻⁶ cm/s. Moreover, in series [3], the efflux ratio at 2 h, 10 µM was found to be 9. Further, the Papp B→A at 2 h, 10 µM in series [4] was determined as 19.8 ×10⁻⁶ cm/s. The molecule also showed an IC50 in series [1] of 6 nM.

What is called solubility is the concentration that dissolves in the medium under given conditions. Lower therefore signals a poorly soluble substance. For `Cc1ccccc1C(=O)Nc1ccc(S(=O)(=O)N[C@H](C)C2CCN(C)CC2)c2ccccc12`, the Papp A→B at 2 h, 10 µM in series [2] came to 1.3 ×10⁻⁶ cm/s. The Papp B→A at 2 h, 10 µM in series [4] was determined as 3.4 ×10⁻⁶ cm/s. Further, the solubility at 2 h in series [5] was under 3 µM.

Turning to `COC(=O)CN1CCC([C@@H](C)NS(=O)(=O)c2ccc(NC(=O)c3ccccc3C)c(C)c2)CC1`, in series [1], the IC50 turned out to be 129 nM.

With `CCCN1CCC([C@@H](C)NS(=O)(=O)c2ccc(NC(=O)c3ccccc3C)c(C)c2)CC1`, in series [2], the Papp A→B at 2 h, 10 µM turned out to be 2.2 ×10⁻⁶ cm/s. Moreover, in series [4], the Papp B→A at 2 h, 10 µM was determined as 30.4 ×10⁻⁶ cm/s.

`Cc1ccccc1C(=O)Nc1ccc(S(=O)(=O)NC2CCN(C(=O)N3CCN(C)CC3)CC2)c2ccccc12` yielded an IC50 in series [1] of 4 nM.

In series [1], `CCCN1CCCN(c2cc(NS(=O)(=O)c3ccc(NC(=O)c4ccccc4C)c4ccccc34)ccc2OC)CC1` registered an IC50 of over 1000 nM.

Turning to `Cc1cc(S(=O)(=O)NCC2CCN(C)CC2)ccc1NC(=O)c1ccccc1C`, the concentration for half-maximal inhibition (IC50) in series [1] is 251 nM.

`Cc1cc(S(=O)(=O)N[C@H](C)C2CCN(C)CC2)ccc1NC(=O)C1CCCCCC1`: the Papp A→B at 2 h, 10 µM in series [2] was found to be 2 ×10⁻⁶ cm/s. Moreover, the efflux ratio at 2 h, 10 µM in series [3] was found to be 8.9. Besides, in series [4], the apparent permeability from basolateral to apical (Papp B→A) at 2 h, 10 µM turned out to be 17.7 ×10⁻⁶ cm/s. In series [1], the IC50 is 28 nM.

Turning to `Cc1ccccc1C(=O)Nc1ccc(S(=O)(=O)N[C@H](C)C2CCN(C)CC2)cc1C#N`, in series [2], the Papp A→B at 2 h, 10 µM was 0.2 ×10⁻⁶ cm/s. For the same molecule, the efflux ratio at 2 h, 10 µM in series [3] stood at 13.5. Also, the basolateral-to-apical permeability (Papp B→A) at 2 h, 10 µM in series [4] came to 2.7 ×10⁻⁶ cm/s. In series [1], this molecule showed an IC50 of 33 nM.

Take `Cc1ccccc1C(=O)Nc1ccc(S(=O)(=O)Nc2cccc3c2N(CCN(C)C)C(=O)CO3)c2ccccc12`: the IC50 in series [1] was over 1000 nM.

`Cc1ccccc1C(=O)Nc1ccc(S(=O)(=O)NC(C)C2CCCCN2)c2ccccc12` (stereo not given): the half-maximal inhibitory concentration (IC50) in series [1] was over 1000 nM.

For the molecule `Cc1ccccc1C(=O)Nc1c(C)cc(S(=O)(=O)N[C@H](C)C2CCN(C)CC2)cc1Cl`, in series [2], the Papp A→B at 2 h, 10 µM is 1.1 ×10⁻⁶ cm/s. The efflux ratio at 2 h, 10 µM in series [3] is 17.7. For the same molecule, the Papp B→A at 2 h, 10 µM in series [4] is 19.5 ×10⁻⁶ cm/s. In series [5], this molecule displayed a solubility at 2 h of 247 µM (≈ 115 µg/mL).

The molecule `CCCC(=O)N1CCCC(C(=O)NS(=O)(=O)c2ccc(NC(=O)c3ccccc3C)c3ccccc23)C1` (stereo not given) yielded an IC50 in series [1] of over 1000 nM.

In the case of `CCCC(=O)N1CCCC(CNS(=O)(=O)c2ccc(NC(=O)c3ccccc3C)c3ccccc23)C1` (stereo not given), in series [1], the IC50 is over 1000 nM.

With `Cc1cc(S(=O)(=O)N[C@H](C)C2CCN(C)CC2)c(C)cc1NC(=O)c1ccccc1C`, in series [2], the apparent permeability from apical to basolateral (Papp A→B) at 2 h, 10 µM came to 1 ×10⁻⁶ cm/s. Moreover, the Papp B→A at 2 h, 10 µM in series [4] was found to be 20.1 ×10⁻⁶ cm/s.

Take `CCCN1CCN(c2ccc(C)c(NS(=O)(=O)c3ccc(NC(=O)c4ccccc4C)c4ccccc34)c2)CC1`: the half-maximal inhibitory concentration (IC50) in series [1] was over 1000 nM.

On to `Cc1cc(S(=O)(=O)N[C@H](C)C2CCN(C)CC2)c(Cl)cc1NC(=O)c1ccccc1C`, for which the Papp A→B at 2 h, 10 µM in series [2] was determined as 2 ×10⁻⁶ cm/s. Also, the Papp B→A at 2 h, 10 µM in series [4] came to 25.5 ×10⁻⁶ cm/s.

Turning to `Cc1ccccc1C(=O)Nc1ccc(S(=O)(=O)N[C@H](C)C2CCN(C)CC2)cc1Cl`, the apparent permeability from apical to basolateral (Papp A→B) at 2 h, 10 µM in series [2] amounted to 0.7 ×10⁻⁶ cm/s. Besides, the Papp B→A at 2 h, 10 µM in series [4] amounted to 25.9 ×10⁻⁶ cm/s. The solubility at 2 h in series [5] worked out at 233 µM (≈ 105 µg/mL).

Molecule `CCCN1CCN(c2ccc(OC)c(NS(=O)(=O)c3ccc(NC(=O)c4ccccc4C)c4ccccc34)c2)CC1` yielded an IC50 in series [1] of over 1000 nM.

As to `Cc1cc(S(=O)(=O)N[C@H](C2CC2)C2CCN(C)CC2)ccc1NC(=O)c1ccccc1C`, in series [2], the Papp A→B at 2 h, 10 µM was 0.3 ×10⁻⁶ cm/s. For the same molecule, in series [4], the Papp B→A at 2 h, 10 µM turned out to be 3.6 ×10⁻⁶ cm/s.

Turning to `CCc1cc(S(=O)(=O)N[C@H](C)C2CCN(C)CC2)ccc1NC(=O)c1ccccc1C`, the Papp A→B at 2 h, 10 µM in series [2] was 1.5 ×10⁻⁶ cm/s. Further, the apparent permeability from basolateral to apical (Papp B→A) at 2 h, 10 µM in series [4] is 25.9 ×10⁻⁶ cm/s.

As to `Cc1cc(S(=O)(=O)N[C@H](C)C2CCN(C)CC2)ccc1NC(=O)c1ccsc1C`, the apparent permeability from apical to basolateral (Papp A→B) at 2 h, 10 µM in series [2] was determined as 1.5 ×10⁻⁶ cm/s. Moreover, the Papp B→A at 2 h, 10 µM in series [4] is 25.9 ×10⁻⁶ cm/s.

In turn, `Cc1ccccc1C(=O)Nc1ccc(S(=O)(=O)N[C@H](C)C23CCN(CC2)CC3)c2ccccc12` gave an IC50 in series [1] of 303 nM. This lies in the sub-micromolar range.

Regarding `Cc1cc(S(=O)(=O)N[C@H](C)C2CCN(C)CC2)ccc1NC(=O)c1cc(Cl)ccc1C`, the Papp A→B at 2 h, 10 µM in series [2] was 1.6 ×10⁻⁶ cm/s. For the same molecule, in series [3], the efflux ratio at 2 h, 10 µM was determined as 19.6. In series [4], the Papp B→A at 2 h, 10 µM was determined as 31.4 ×10⁻⁶ cm/s. In addition, half-maximal inhibition in series [1] (IC50) was put at 1.7 nM.

On to `Cc1cc(S(=O)(=O)N[C@H](C)C2CCN(C)CC2)ccc1NC(=O)c1ccc(Cl)cc1C`, for which the Papp A→B at 2 h, 10 µM in series [2] was 1.1 ×10⁻⁶ cm/s. For the same molecule, the efflux ratio at 2 h, 10 µM in series [3] was 17.6. The Papp B→A at 2 h, 10 µM in series [4] came out at 19.4 ×10⁻⁶ cm/s. This molecule had an IC50 in series [1] of 1.7 nM.

Turning to `COCCN1CCC([C@@H](C)NS(=O)(=O)c2ccc(NC(=O)c3ccccc3C)c(C)c2)CC1`, half-maximal inhibition in series [1] (IC50) required 79 nM.
